pIC50: −log10 of the molar value.
Legend:
[1] = system: bone marrow polychromatic erythrocytes; experiment: In vivo micronucleus study in mice; settings: male ICR mice, oral twice at 24 hour interval, bone marrow 24 hours after final administration, highest dose group with all animals alive
Method: (§1) The compounds of Examples 2, 4 and 12 were used as test compounds.
A test compound suspended in 0.5% methylcellulose was orally administered to male ICR mice (8 week-old, three animals in a group) twice at a 24 hour interval. To a control group, 0.5% methylcellulose was orally administered in a similar manner.
At 24 hours after the final administration, the mice in the highest dose group in which all the animals were alive were killed by exsanguination under ether anesthesia, and one thigh bone was collected from each animal. After cutting the collected thigh bone at the proximal end, bone marrow cells were washed out with fetal calf serum to a centrifuge tube using a disposable syringe, and after centrifugation (1000 rpm, 5 minutes, HITACHI 05PR-22), a part of the supernatant was discarded to obtain a suspension of bone marrow cells. This suspension was smeared on a slide glass, and then dried followed by methanol fixation to prepare a sample.
The sample was observed by acridine orange staining.
The sample of which frequency of MNPCE exceeds 0.5% was judged positive.
Frequency of MNPCE (%)=(MNPCE number/Observed PCE number)×100

[2] = system: HIV-1 (JRCSF); experiment: Anti-HIV activity (Test Example 1-2): infected MaRBLE cells seeded on plate containing drug solution, luciferase readout after 7 days; format: cell-based; settings: Human immunodeficiency virus 1, 168 h, MaRBLE cells infected with HIV-1 (JRCSF), 7 days culture, firefly luciferase, FORECAST linear regression (Excel)
Method: (§2) This example was carried out by reference to Journal of Clinical Microbiology, 2007, Vol. 45, pages 477 to 487.
(§3) An anti-HIV activity was evaluated using MaRBLE cells obtained by transfection of HPB-M(a) derived from human T-lymphocytes with a luciferase gene of which expressions were regulated by HIV-1 LTR and a CCR5 gene etc.
A plate containing a drug solution was made by dispensing a fresh culture medium or an appropriately diluted test compound to a 96-well plate.
MaRBLE cells were suspended in RPMI1640 containing 10% FCS (fetal calf serum) and penicillin/streptomycin. After infected with HIV-1 (JRCSF), the cells were seeded on the above-described plate containing a drug solution ([…] cells/well). As a control group, the same number of uninfected cells were seeded.
After culturing at 37° C. under 5% CO2 for 7 days, an intracellular luciferase activity was measured using Dual-Glo Luciferase assay system (Promega).
(§4) The virus growth rate was calculated by the following equation.
(§5) Virus growth rate (%)=(A/B)×100
(§6) A=(Firefly luciferase activity in the well with the compound)−(Firefly luciferase activity of uninfected cells)
(§7) B=(Firefly luciferase activity in the well without the compound)−(Firefly luciferase activity of uninfected cells)
The IC50 of the compound was calculated by plotting the concentration with the logarithm and by plotting the virus growth rate with a real number, using the FORECAST function (linear regression technique) of Microsoft Office Excel 2003.

[3] = Single-dose oral toxicity study in mice; format: in vivo; settings: male ICR mice, suspension in 0.5% methylcellulose, conditions observed on the next day
Method: as §1
10 mL/kg of a test compound suspended in 0.5% methylcellulose was orally administered to male ICR mice (6 week-old, one animal in a group).
On the next day after the administration, the conditions of the mice were observed.

[4] = Pharmacokinetic study in mice (oral administration); format: in vivo; settings: mouse, serum, 25 mg/kg, male ICR mice, suspension in 0.5% methylcellulose 2.5 mg/mL at 10 mL/kg, 12 hours after administration, HPLC, read-out: serum concentration of the test compound
Method: The compounds of Examples 2, 4, 5, 12 and 16 were used as test compounds.
A test compound suspended in 0.5% methylcellulose (2.5 mg/mL) was orally administered at 10 mL/kg to male ICR mice (6 week-old, three animals in a group). At 12 hours after the administration, the blood of the mice was collected, and the concentrations of the test compound in the serum were measured by HPLC.

[5] = system: HIV-1 (JRCSF); experiment: Anti-HIV activity (Test Example 1-1): MaRBLE cells infected with HIV-1 (JRCSF), compound added 2 h after seeding, luciferase readout after 7 days; format: cell-based; settings: Human immunodeficiency virus 1, 168 h, 7 days culture, firefly luciferase, virus growth rate, 4 parameter Logistic Model (XLfit 4)
Method: as §2, §3
The MaRBLE cells were suspended in RPMI1640 containing 10% FCS (fetal calf serum) and penicillin/streptomycin. After infected with HIV-1 (JRCSF), the cells were seeded on a 96-well plate (1×10^5 cells/well). As a control group, the same number of uninfected cells were seeded.
After incubating the plate under the condition of 37° C. and 5% CO2 for 2 hours, a fresh culture medium or a culture medium containing an appropriately diluted test compound was added to each well.
After further culturing at 37° C. under 5% CO2 for 7 days, an intracellular luciferase activity was measured using Dual-Glo Luciferase assay system (Promega).
as §4, §5, §6, §7
The IC50 of the compound was calculated by applying virus growth rates of various concentrations to 4 parameter Logistic Model of curve-fitting software XLfit 4.

Compound | micronucleus test result (frequency of MNPCE exceeding 0.5% judged positive) [1] | pIC50 [2] | dose at which the compound showed good safety (single oral dose) [3] | concentration at 12 h [4] | pIC50 [5]
Cc1noc(C)c1-c1ccc2c(=O)cc(C)n(-c3cc(N)c(F)c(F)c3F)c2n1 [Example 12, 1-(5-amino-2,3,4-trifluorophenyl)-7-(3,5-dimethylisoxazol-4-yl)-2-methyl-1,4-dihydro-4-oxo-1,8-naphthyridine] | negative | 8.72 | 1000 mg/kg | ≥ 500 ng/mL | –
Cc1noc(C)c1-c1ccc2c(=O)cc(C)n(-c3cc(N)c(F)cc3F)c2c1 [Example 2, 1-(5-amino-2,4-difluorophenyl)-7-(3,5-dimethylisoxazol-4-yl)-2-methyl-1,4-dihydro-4-oxoquinoline] | negative | – | 2000 mg/kg | ≥ 500 ng/mL | 8.85
Cc1noc(C)c1-c1ccc2c(=O)cc(C)n(-c3cc(N)c(F)cc3F)c2n1 [Example 4, 1-(5-amino-2,4-difluorophenyl)-7-(3,5-dimethylisoxazol-4-yl)-2-methyl-1,4-dihydro-4-oxo-1,8-naphthyridine] | negative | – | 750 mg/kg | ≥ 500 ng/mL | 9.42

— patent publication US20130005760A1, “HETEROCYCLIC COMPOUND HAVING AZOLE GROUP” (Toyama Chemical Co., Ltd., priority 2010, published 2013)
